# Assays:
# [1] = Encapsulation efficiency of RNA (QUANT-IT RIBOGREEN RNA assay); type: physicochemical; conditions: Table 1A
# How it was run: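 RiboGreen fluorescence (ex ~480, em ~520 nm) compared between intact samples and Triton X-100-lysed samples after 15 min at 37 °C in TE buffer, pH 7.5. Percent free RNA is the blank-corrected intact/disrupted ratio.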
# [2] = Particle size and polydispersity index of nanoparticle compositions (Zetasizer Nano ZS); type: physicochemical; conditions: Table 1A; for Size (nm): lipid:DSPC:cholesterol:PEG-DMG 50:10:38.5:1.5 mol %
# How it was run: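 Measured in 1×PBS by Zetasizer Nano ZS.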
# [3] = Apparent (surface) pKa of the LNP formulation (TNS assay); type: physicochemical; conditions: Table 1A
# How it was run: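 Fluorescence of TNS probe added to LNP samples (mRNA 0.04 mg/mL) was read across 21 buffers of pH about 3-12, triplicate per pH. The inflection point of the sigmoidal fluorescence-vs-pH curve, […], gives apparent pKa; method validated in 1× PBS and Tris/sucrose buffer.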
# luciferase (Luc) mRNA [4] = assay: Luc expression (total flux) after intramuscular administration; type: in vivo, mice; conditions: for Total flux, 0.001 mpk Dose / Total flux, 0.01 mpk Dose / Total flux (p/s) 0.01 mpk Dose: 6 hours after intramuscular administration; for Total flux, 0.001 mpk Dose / Total flux, 0.01 mpk Dose: Luc mRNA and H10 mRNA; for Total flux (p/s) 0.01 mpk Dose: Table 5B; for i.m. Lipid/MC3 0.01 mpk, Luc, 6 h: Table 3B
# Procedure: In order to monitor how effectively various nanoparticle compositions deliver therapeutic and/or prophylactics to targeted cells, different nanoparticle compositions including a particular therapeutic and/or prophylactic (for example, a modified or naturally occurring RNA such as an mRNA) are prepared and administered to rodent populations. Mice are intravenously, intramuscularly, intraarterially, or intratumorally administered a single dose including a nanoparticle composition with a formulation such as those provided in Example 3. In some instances, mice may be made to inhale doses. Dose sizes may range from 0.001 mg/kg to 10 mg/kg, where 10 mg/kg describes a dose including 10 mg of a therapeutic and/or prophylactic in a nanoparticle composition for each 1 kg of body mass of the mouse. A control composition including PBS may also be employed.
# Sample formulations including both modified luciferase (Luc) mRNA and H10 mRNA were prepared and administered intramuscularly and the resulting expression and immunogenicity were evaluated simultaneously. Formulations including compounds according to Formula (I), (IA), (IB), (II), (IIa), (IIb), (IIc), (IId), (IIe), (IIf), (IIg), (III), (VI), (VI-a), (VII), (VIII), (VIIa), (VIIIa), (VIIIb), (VIIb-1), (VIIb-2), (VIIb-3), (VIIc), (VIId), (VIIIc), or (VIIId) were prepared and administered at doses of 0.001 and 0.01 mpk (e.g., doses of 0.0005 mpk of a formulation including Luc mRNA and a formulation including H10 mRNA or doses of 0.005 mpk of a formulation including Luc mRNA and a formulation including H10 mRNA).
# Sample formulations including modified luciferase (Luc) mRNA prepared and administered intramuscularly and the resulting expression and immunogenicity were evaluated simultaneously. Formulations including compounds according to Formula (I), (IA), (IB), (II), (IIa), (IIb), (IIc), (IId), (IIe), (IIf), (IIg), (III), (VI), (VI-a), (VII), (VIII), (VIIa), (VIIIa), (VIIIb), (VIIb-1), (VIIb-2), (VIIb-3), (VIIc), (VIId), (VIIIc), or (VIIId) were prepared and administered at dose of and 0.01 mpk.
# luciferase (Luc) mRNA [5] = assay: Luc expression in liver, lung, spleen and femur 6 hours after intravenous administration; type: in vivo; conditions: mice, intravenous, 0.5 mpk
# How it was run: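 LNP-formulated mRNA given IV to mice (n=3) at 0.5 mpk; at 6 h, bioluminescence imaged ex vivo 15 min after IP D-luciferin (15 mg/mL, 200 μL), organs imaged within 25 min. Values are total flux by region of interest.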
# luciferase (Luc) mRNA [6] = assay: Luc expression, whole body bioluminescence after intravenous administration to mice; type: in vivo; conditions: for Total Flux 3 hours / Total Flux 6 hours / Total Flux 24 hours: Luc mRNA; for Fold increase in total body Luc Flux relative to MC3 at 6 h: Table 3A, i.v. administration
# How it was run: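 Bioluminescence, read as region-of-interest total flux at 3, 6 and 24 h, followed a single 0.5 mg/kg intravenous dose of Luc mRNA-loaded nanoparticles in mice (n=6). Luciferin substrate (200 μL, 15 mg/mL in PBS) was injected intraperitoneally into CD-1 mice 15 minutes ahead of each imaging point.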
Compound,EE (%) [1] [%],PDI [2],Size (nm) [2] [nm],pKa [3],"Total flux, 0.001 mpk Dose (luciferase (Luc) mRNA [4]) [p/s]","Total flux, 0.01 mpk Dose (luciferase (Luc) mRNA [4]) [p/s]",Total Flux Liver (luciferase (Luc) mRNA [5]),Total Flux Lung (luciferase (Luc) mRNA [5]),Total Flux Spleen (luciferase (Luc) mRNA [5]),"Total Flux 3 hours (luciferase (Luc) mRNA [6]; mice, i.v., 0.5 mg/kg)","Total Flux 6 hours (luciferase (Luc) mRNA [6]; mice, i.v., 0.5 mg/kg)","Total Flux 24 hours (luciferase (Luc) mRNA [6]; mice, i.v., 0.5 mg/kg)",Fold increase in total body Luc Flux relative to MC3 at 6 h (luciferase (Luc) mRNA [6]),"total flux at 3 hours (luciferase (Luc) mRNA [6]; mice, i.v., 0.5 mg/kg, comparison in words)",Total flux (p/s) 0.01 mpk Dose (luciferase (Luc) mRNA [4]) [p/s],"i.m. Lipid/MC3 0.01 mpk, Luc, 6 h (luciferase (Luc) mRNA [4])","Novel lipid/MC3 expression ratio, 6 hr. time point, i.m. Luc (luciferase (Luc) mRNA [4]; intramuscular, relative to MC3 formulation)"
"CCCCCCCCCN(CCCCCCCC(=O)OC(CCCCCCCC)CCCCCCCC)CCCn1ccnc1 [Compound 8, Heptadecan-9-yl 8-((3-(1H-imidazol-1-yl)propyl)(nonyl)amino)octanoate]",95.8,0.15,121.0,6.64,7.81E+05,3.32E+06,7.87E+08,4.06E+06,1.51E+08,7.43E+09,6.71E+09,7.84E+08,,,,,
"CCCCCCCCCOC(=O)CCCCCCCN(CCO)CCCCCCCC(=O)OC(CCCCCC)CCCCCCCC (stereo not drawn) [Compound 32, nonyl 8-((2-hydroxyethyl)(8-oxo-8-(pentadecan-7-yloxy)octyl)amino) octanoate]",94.87,0.18,105.6,6.75,7.37E+05,1.03E+07,8.52E+09,1.16E+07,1.70E+08,8.65E+10,6.08E+10,1.92E+09,1.39,highest,,,
"CCCCCCCCCOC(=O)CCCCCCCN(CCO)CCCCCCCC(=O)OC(CC)CCCCCCCC (stereo not drawn) [Compound 35, nonyl 8-((2-hydroxyethyl)(8-oxo-8-(undecan-3-yloxy)octyl)amino) octanoate]",90.82,0.18,151.1,6.85,2.45E+06,8.12E+06,1.63E+08,2.06E+06,1.23E+08,9.82E+08,1.24E+09,5.09E+07,0.028,,,,
"CCCCCCCCCOC(=O)CCCCCCCN(CCCCCCCC(=O)OC(CCCCCCCC)CCCCCCCC)CCCn1ccc(=O)[nH]c1=O [Compound 114, Heptadecan-9-yl 8-((3-(2,4-dioxo-3,4-dihydropyrimidin-1(2H)-yl)propyl)(8-(nonyloxy)-8-oxooctyl)amino)octanoate]",98.8,0.11,65.1,6.42,,,,,,8.41E+07,5.98E+07,,,,3.31E+06,,
"CCCCCCCCCOC(=O)CCCCCCCN(CCCN)CCCCCCCC(=O)OC(CCCCCCCC)CCCCCCCC [Compound 121, Heptadecan-9-yl 8-((3-aminopropyl)(8-(nonyloxy)-8-oxooctyl)amino)octanoate]",,,,8.50,,,,,,1.29E+06,1.36E+06,,,,1.06E+06,,
"CCCCCCCCCOC(=O)CCCCCCCN(C)CCCCCCCC(=O)OC(CCCCCCCC)CCCCCCCC [Compound 123, Heptadecan-9-yl 8-(methyl(8-(nonyloxy)-8-oxooctyl)amino)octanoate]",,,,6.27,,,2.50E+08,1.78E+06,4.04E+06,4.06E+09,1.81E+10,5.18E+08,,,1.08E+07,,
"CCCCCCCCCOC(=O)CCCCCCCN(CCCCCCCC(=O)OC(CCCCCCCC)CCCCCCCC)CCCN(C)S(C)(=O)=O [Compound 173, Heptadecan-9-yl 8-((3-(N-methylmethylsulfonamido)propyl)(8-(nonyloxy)-8-oxooctyl)amino)octanoate]",92.89,0.16,75.5,6.31,,,,,,,,,,,,0.6,
"CCCCCCCCCOC(=O)CCCCCCCN(CCCCCCCC(=O)OC(CCCCCCCC)CCCCCCCC)CCCN1C(=O)CNC1=O [Compound 174, Heptadecan-9-yl 8-((3-(2,5-dioxoimidazolidin-1-yl)propyl)(8-(nonyloxy)-8-oxooctyl)amino)octanoate]",99.0,0.21,84.4,6.65,,,,,,,,,,,,0.2,
"CCCCCCCCCOC(=O)CCCCCCCN(CCCCCCCC(=O)OC(CCCCCCCC)CCCCCCCC)CCCOC(=O)NC [Compound 175, Heptadecan-9-yl 8-((3-((methylcarbamoyl)oxy)propyl)(8-(nonyloxy)-8-oxooctyl)amino)octanoate]",94.8,0.16,65.7,6.15,,,,,,,,,,,,0.1,
"CCCCCCCCCOC(=O)CCCCCCCN(CCCCCCCC(=O)OC(CCCCCCCC)CCCCCCCC)CCCn1cc(CO)nn1 [Compound 218, Heptadecan-9-yl 8-((3-(4-(hydroxymethyl)-1H-1,2,3-triazol-1-yl)propyl)(8-(nonyloxy)-8-oxooctyl)amino)octanoate]",98.8,0.21,81.4,6.59,,,,,,,,,,,,,1.77
